Measurements published in US20180125835A1, “Dosage and Use of an A2A Antagonist” (H. Lundbeck A/S, priority 2014, published 2018).

Columns and labels:
[1] = molecular target: T1, A3 (Homo sapiens, UniProt P0DMS8); assay: Adenosine receptor binding affinity, human A3
T1 sequence (P0DMS8 1-318): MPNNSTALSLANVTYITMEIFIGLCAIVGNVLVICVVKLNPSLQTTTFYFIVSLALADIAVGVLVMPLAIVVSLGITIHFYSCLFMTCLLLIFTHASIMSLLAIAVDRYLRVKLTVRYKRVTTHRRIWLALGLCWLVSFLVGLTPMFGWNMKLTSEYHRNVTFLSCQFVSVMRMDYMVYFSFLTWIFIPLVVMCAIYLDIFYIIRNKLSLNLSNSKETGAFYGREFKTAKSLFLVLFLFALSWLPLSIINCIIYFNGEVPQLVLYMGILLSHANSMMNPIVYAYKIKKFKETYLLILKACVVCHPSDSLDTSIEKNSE

[2] = molecular target: T2, A1 receptor (Mus musculus, UniProt Q60612); assay: Adenosine receptor binding affinity, mouse A1
T2 sequence (Q60612 1-326): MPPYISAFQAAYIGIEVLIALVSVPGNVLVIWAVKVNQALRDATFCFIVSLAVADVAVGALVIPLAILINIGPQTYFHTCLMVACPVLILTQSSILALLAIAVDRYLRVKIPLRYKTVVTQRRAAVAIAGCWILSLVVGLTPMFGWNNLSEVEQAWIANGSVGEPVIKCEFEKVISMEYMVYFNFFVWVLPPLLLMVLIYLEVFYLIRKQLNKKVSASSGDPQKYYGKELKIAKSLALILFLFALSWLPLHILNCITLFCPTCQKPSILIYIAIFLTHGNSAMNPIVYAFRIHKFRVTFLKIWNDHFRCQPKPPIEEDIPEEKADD

[3] = system: 57 counter-screen targets (receptors, ion channels and transporters); assay: Counter-screen binding panel of CNS targets
[4] = molecular target: A2A receptor (Rattus norvegicus, UniProt P30543); assay: Reversal of CGS21680-induced hypolocomotion; type: in vivo
A2A receptor (Rattus norvegicus, UniProt P30543), sequence (P30543 whole entry): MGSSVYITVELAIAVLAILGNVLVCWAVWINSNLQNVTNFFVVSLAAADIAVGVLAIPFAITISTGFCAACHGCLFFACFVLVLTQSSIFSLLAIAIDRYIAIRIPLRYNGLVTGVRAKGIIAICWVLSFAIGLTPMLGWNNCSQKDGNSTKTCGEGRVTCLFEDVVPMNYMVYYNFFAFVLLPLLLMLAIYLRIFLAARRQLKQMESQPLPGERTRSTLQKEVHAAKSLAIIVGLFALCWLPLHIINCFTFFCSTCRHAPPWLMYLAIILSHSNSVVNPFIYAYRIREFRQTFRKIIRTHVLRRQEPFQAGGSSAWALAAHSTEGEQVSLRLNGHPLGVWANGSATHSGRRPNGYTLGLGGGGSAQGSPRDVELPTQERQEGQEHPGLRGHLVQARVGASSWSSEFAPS
Description: Doses of 0.01, 0.03, 0.06, 0.1 mg/kg were tested in a dosage form of 0.5 w/v % methyl cellulose 400 (viscosity: 400 cP) in distilled water. Drug was administered at a volume of 5 ml/kg, oral.
Sixty (60) male Long Evans rats, 3 months age, were allocated into 6 groups of N=10 rats per group.
The activity test, monitoring the rat's spontaneous activity was measured in the automated
Med Associates activity test chamber for 20 minutes. The tracking arena was of dimension 17′W×17″L×12″H, sensor bars were secured 1″ above the floor to track distance travelled, and a second set of sensor bars were placed 6″ above the floor to measure vertical movement and rearing activity. The parameters set on the tracking software were: resolution—50 ms, box size—4 beams, resting delay—500 ms, and ambulatory trigger—2.

[5] = system: Long Evans rats; assay: 5-choice serial reaction time task (5-CSRTT); type: in vivo, rat
Description: (A) Testing under standard conditions, i.e. equivalent to final conditions to which the animals were trained, i.e. stimulus duration (SD) 0.75 seconds (s), inter-trial interval (ITI) 5 s, 100 trials. The purpose of this condition being to measure drug effect on performance under standard conditions. (B) Testing under conditions of extended (long) ITI, i.e. low event rate, SD 0.3 s, ITI 5, 7.5, 10 s, 120 trials. The purpose of this condition being to measure drug effect on performance under lower event rate requiring the animal to delay its responding. (C) Testing under conditions of short ITI, i.e. high event rate, SD 0.3 s, ITI 3, 4, 5 s, 120 trials. The purpose of this condition to measure drug effect on performance under high event rate requiring the animal to rapidly process sensory information. (D) Testing under conditions of extended trials, i.e. SD 0.3 s, ITI 5 s, 250 trials. The purpose of this condition to measure drug effect on performance under extended trials, testing sustained attention or vigilance.
Sixteen (16) experimentally naïve, male Long Evans rats were trained to asymptotic performance in the 5-CSRTT over a period of approximately 2-3 months. The rats were trained to final stimulus duration (SD) of 0.75 s, 5 s inter-trial interval (ITI), 5 s limited hold (LH), 100 trials per session. Target performance levels under these conditions was in the range of >80% accuracy and <20% omissions.
Once the group of animals were trained, multiple drug studies according to various experimental tasks (see table 2 below) was tested in the same cohort of rats. […] The study design was made up of 4 experiments, with each experiment 2-3 weeks in duration and a 1 week intervening period between each experiment.

[6] = system: Long Evans rats; assay: Locomotor activity in habituated rats; type: in vivo, rat
Description: Sixteen (16) male Long Evans rats were habituated to Med Associates test activity chambers (17″ W×17″ L×12″ H) over three, 90-minute sessions. […] Total distance travelled and rearing counts for the total session were the primary measure.

[7] = molecular target: A2A receptor (Homo sapiens, UniProt P29274); assay: biochemical
A2A receptor (Homo sapiens, UniProt P29274), sequence (P29274 whole entry): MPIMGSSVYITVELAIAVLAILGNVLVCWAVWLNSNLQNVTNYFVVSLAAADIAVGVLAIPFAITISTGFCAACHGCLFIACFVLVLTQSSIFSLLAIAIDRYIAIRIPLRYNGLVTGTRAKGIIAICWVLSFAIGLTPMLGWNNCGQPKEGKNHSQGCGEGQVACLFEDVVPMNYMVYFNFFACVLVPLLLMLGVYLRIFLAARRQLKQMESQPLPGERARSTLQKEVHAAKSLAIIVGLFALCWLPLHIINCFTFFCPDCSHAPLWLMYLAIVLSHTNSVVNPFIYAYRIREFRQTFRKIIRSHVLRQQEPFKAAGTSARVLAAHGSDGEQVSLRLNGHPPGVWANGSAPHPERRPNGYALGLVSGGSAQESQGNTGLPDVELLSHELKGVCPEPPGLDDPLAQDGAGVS

Cc1ccc(C(=O)Nc2nc(-c3ccco3)c(C(=O)C3CCOCC3)s2)cn1 [Compound 504]
Ki [1]: 0.428 ± 0.0725 µM | Ki [2]: 0.0311 ± 0.00109 µM | affinity for other receptors, ion channels and transporters ([3]; DA, 5-HT, Ach, GABA, Glu, opiates, cannabinoid, calcium, potassium channels, transporters): Little or no affinity | inhibition of binding ([3]; at 10 μM, any of the 57 counter-screen targets): Less than 50% | reversal of CGS-induced hypolocomotion ([4]; 0.1 mg/kg oral): completely reversed | reversal of CGS-hypolocomotion (distance travelled, rearing, ambulatory episodes) ([4]; 0.06 and 0.1 mg/kg doses): significantly reversed | ED50 ([4]; rat, po, read-out: ED50 for antagonism of the CGS-hypolocomotion): ~0.06 mg/kg | correct trials completed by all rats in Bin 5 ([5]; extended 250 trials, 0.1 mg/kg): at least 13 | decline in % correct and number of correct responses, increase in omissions over Bins 4 and 5 ([5]; extended 250 trials, 0.03-0.1 mg/kg oral, particularly 0.06-0.1 mg/kg): protected against the decline | premature responses ([5]; long ITI, 0.06 mg/kg oral): increased | accuracy under long ITI ([5]; long ITI, 0.06 mg/kg oral, P=0.09): non-significant trend of compound 504 to reduce accuracy | performance in terms of choice accuracy ([5]; short ITI, 0.03-0.06 mg/kg oral, particularly at 3 s ITI): improved performance | % correct, # incorrect responses, omissions, premature responses ([5]; short ITI, averaged over the multiple ITI): improving performance on each measure | other measures (% correct, # correct/incorrect responses, omissions, magazine latency) ([5]; standard conditions): unaffected | speed of responding (correct latency) ([5]; standard conditions, doses 0.03-0.1 mg/kg oral): significantly increased speed of responding | premature responding ([5]; standard conditions, significant only at 0.1 mg/kg): increased premature responding | locomotor activity (distance travelled and rearing counts) ([6]; 0.01-1 mg/kg oral, 90 min test session): dose related increase | timecourse of locomotor activity changes ([6]; 90 min session, all doses): peaked during the first 10 min timebin | dose at which magnitude of locomotor effect plateaued ([6]; oral, 90 min session): 0.06 to 0.1 mg/kg | effect size on locomotor activity compared with amphetamine (1 mg/kg IP) ([6]; same study): significantly less | Ki [7]: 0.000118 ± 2.3e-06 µM
